This test relates to acetylcholinesterase (AchE) in the brain. Put plainly: Time course of inhibition of brain acetylcholinesterase (AchE) in the rat after s.c. administration (Ellman acetylthiocholine method, ex vivo). Set-up: species or system rat (male Crl:CD (SD) BR). Conditions: for Time of peak effect on brain AchE: at doses producing effects comparable to 9 mg/kg CHF 2060. How it is done: 1. Acetylcholinesterase inhibition
The time course of inhibition of acetylcholinesterase (AchE) in the brain was assessed in male Crl:CD (SD) BR rats (Charles River Italia), weighing between 150-250 g.
The test substances were administered by s.c. route, dissolved in 2 ml/kg of sterile saline. 9 animals/group/time were used.
Controls received the vehicle only.
At various intervals (10-60-120-240 min) after administration the rats were sacrificed by decapitation and the brains were rapidly removed, weighed and immediately placed in 1 ml of phosphate buffer 0.1M, pH 8.0, added with 1% Triton 100 (Merck).
After homogenization and centrifugation at 19943 g for 15 min at 4° C. the surnatant was separated and used for the determination of AchE activity according to the acetyltiocholine method described by Ellmann (Ellman G. L. et al., Biochem. Pharmacol. 7, 88, 1961).
The activity concentrations obtained (U/l surnatant) were individually corrected for the brain weight.
In general terms: In Ellman's method for cholinesterases, released thiocholine reacts with DTNB.

Each structure is given as a SMILES string. Structures can show the parent of a compound that is named as a salt.

Regarding `CCCCCCCNC(=O)Oc1ccc2c(c1)C1(C)CCN(C)OC1N2C` [CHF 2060, N-heptyl-geneserine L-tartrate], the “AUC 0-4 h of inhibition of brain acetylcholinesterase” value is, setting by setting: (9 mg/kg s.c.) 127 % inib. hr; (27 mg/kg s.c.) 190 % inib. hr. In addition, the “Max % inhib. of brain acetylcholinesterase” value runs as follows: (9 mg/kg s.c.) 45%; (27 mg/kg s.c.) 68%. The “T max (time of the maximal inhibition)” value (9 mg/kg s.c.) is at least 4 h and the “T max (time of the maximal inhibition)” value (27 mg/kg s.c.) was at least 4 h. Besides, the “Brain acetylcholinesterase % inhib.” value reads like this: (9 mg/kg s.c., 10 min) 11%; (9 mg/kg s.c., 60 min, ** P < 0.01) 29%; (9 mg/kg s.c., 120 min, ** P < 0.01) 33%; (9 mg/kg s.c., 240 min, ** P < 0.01) 45%; (27 mg/kg s.c., 10 min) 12%; (27 mg/kg s.c., 60 min, ** P < 0.01) 45%. Besides, the “Brain acetylcholinesterase % inhib.” value runs as follows: (27 mg/kg s.c., 120 min, ** P < 0.01) 50%; (27 mg/kg s.c., 240 min, ** P < 0.01) 68%. For the same molecule, the “Brain acetylcholinesterase activity, U/1 surn.” value (9 mg/kg s.c., 10 min) came out at 3094 ± 197 U/1 surn; the “Brain acetylcholinesterase activity, U/1 surn.” value (9 mg/kg s.c., 60 min) amounted to 2294 ± 150 U/1 surn; the “Brain acetylcholinesterase activity, U/1 surn.” value (9 mg/kg s.c., 120 min) came to 2205 ± 171 U/1 surn; the “Brain acetylcholinesterase activity, U/1 surn.” value (9 mg/kg s.c., 240 min) is recorded as 1565 ± 80 U/1 surn; the “Brain acetylcholinesterase activity, U/1 surn.” value (27 mg/kg s.c., 10 min) is given as 3070 ± 117 U/1 surn; the “Brain acetylcholinesterase activity, U/1 surn.” value (27 mg/kg s.c., 60 min) was found to be 1782 ± 164 U/1 surn. For the same molecule, the “Brain acetylcholinesterase activity, U/1 surn.” value is listed as 1629 ± 38 U/1 surn (27 mg/kg s.c., 120 min) and 914 ± 26 U/1 surn (27 mg/kg s.c., 240 min). Also, the “Factor of increase of effect between 120 and 240 min” value (27 mg/kg s.c., 120 to 240 min) was found to be 1.4. The “Inhibition of brain AchE (qualitative)” value (s.c.) was “long-lasting inhibitor of brain AchE”. Also, the “Course of effect during the 4 hrs following the treatment” value (s.c., 0-4 hrs) is given as “increase gradually during the 4 hrs following the treatment”. Further, the “Duration of action compared with Heptyl physostigmine tartrate” value (s.c., 27 mg/kg vs 1 mg/kg HPYS, similar AUC) was “more sustained action”. Further, the “Significant inhibition of brain AchE” value (s.c., 1 hr after administration (9 and 27 mg/kg), P<0,001) was 29-45%. For the setting “s.c., 4 hrs vs 1 hr (9 and 27 mg/kg)”, the “Factor of increase of effect within 4 hrs in respect to the first hour” value is reported as 1.5-1.6.

Turning to `CNC(=O)Oc1ccc2c(c1)C1(C)CCN(C)OC1N2C` (stereo not drawn) [Geneserine tartrate], the “AUC 0-4 h of inhibition of brain acetylcholinesterase” value (3 mg/kg s.c.) was 133 % inib. hr. Also, under “3 mg/kg s.c.”, the “Max % inhib. of brain acetylcholinesterase” value is 53-57%. For the setting “3 mg/kg s.c.”, the “T max (time of the maximal inhibition)” value is 0.167 to 1 h. The “Brain acetylcholinesterase activity, U/1 surn.” value reads like this: (3 mg/kg s.c., 10 min) 1447 ± 100 U/1 surn; (3 mg/kg s.c., 60 min) 1231 ± 86 U/1 surn; (3 mg/kg s.c., 120 min) 2162 ± 134 U/1 surn; (3 mg/kg s.c., 240 min) 2139 ± 208 U/1 surn. The “Brain acetylcholinesterase % inhib.” value by setting is: (3 mg/kg s.c., 10 min, ** P < 0.01) 53%; (3 mg/kg s.c., 60 min, ** P < 0.01) 57%; (3 mg/kg s.c., 120 min, ** P < 0.01) 28%; (3 mg/kg s.c., 240 min) 12%. For the same molecule, the “Factor of reduction of effect 120 min. after the treatment” value (s.c., 120 min vs peak) was 1.5-2. Also, under “s.c.”, the “Effect on brain AchE after 240 min.” value is on record as “disappears after 240 min”. Also, the “Time of peak effect on brain AchE” value (s.c.) lay within 10 to 60 min. The “Onset of effect compared with CHF 2060” value (s.c., vs 9 mg/kg CHF 2060, comparable AUC and maximum inhibition) is reported as “more rapid effect”.

For the molecule `CCCCCCCNC(=O)Oc1ccc2c(c1)[C@]1(C)CCN(C)[C@@H]1N2C` [Heptyl physostigmine tartrate], the “AUC 0-4 h of inhibition of brain acetylcholinesterase” value (0.3 mg/kg s.c.) is recorded as 94 % inib. hr and the “AUC 0-4 h of inhibition of brain acetylcholinesterase” value (1 mg/kg s.c.) amounted to 178 % inib. hr. Further, where the note is “1 mg/kg s.c.”, the “Max % inhib. of brain acetylcholinesterase” value amounted to 54%. Besides, the “T max (time of the maximal inhibition)” value (1 mg/kg s.c.) amounted to 1 h. Besides, the “Factor of reduction of effect between 120 and 240 min” value (1 mg/kg s.c., 120 to 240 min) turned out to be 1.4. The “Brain acetylcholinesterase activity, U/1 surn.” value was 2246 ± 115 U/1 surn (1 mg/kg s.c., 10 min); 1166 ± 85 U/1 surn (1 mg/kg s.c., 60 min); 1506 ± 115 U/1 surn (1 mg/kg s.c., 120 min); 1867 ± 52 U/1 surn (1 mg/kg s.c., 240 min). The “Brain acetylcholinesterase % inhib.” value (1 mg/kg s.c., 10 min, ** P < 0.01) is 29%; the “Brain acetylcholinesterase % inhib.” value (1 mg/kg s.c., 60 min, ** P < 0.01) came out at 54%; the “Brain acetylcholinesterase % inhib.” value (1 mg/kg s.c., 120 min, ** P < 0.01) was 52%; the “Brain acetylcholinesterase % inhib.” value (1 mg/kg s.c., 240 min, ** P < 0.01) was found to be 36%.

`CNC(=O)Oc1ccc2c(c1)[C@]1(C)CCN(C)[C@@H]1N2C` [Physostigmine]: the “AUC 0-4 h of inhibition of brain acetylcholinesterase” value (0.4 mg/kg s.c.) worked out at 135 % inib. hr. The “Brain acetylcholinesterase activity, U/1 surn.” value is reported as 1368 ± 125 U/1 surn (0.4 mg/kg s.c., 10 min); 1483 ± 148 U/1 surn (0.4 mg/kg s.c., 60 min); 1829 ± 94 U/1 surn (0.4 mg/kg s.c., 120 min); 2234 ± 151 U/1 surn (0.4 mg/kg s.c., 240 min). Moreover, the “Effect on brain AchE after 240 min.” value (s.c.) was “disappears after 240 min”. For the same molecule, the “Time of peak effect on brain AchE” value (s.c.) lay within 10 to 60 min.

These data come from patent US5538968A, “Geneserine derivatives processes as cholinesterase inhibitors” (priority 1991, dated 1996).
